Measured values: paper PMC10726355, “Small Molecule Ligands of the BET-like Bromodomain, SmBRD3, Affect Schistosoma mansoni Survival, Oviposition, and Development” (Journal of Medicinal Chemistry, 2023)
Entries after “also recorded” stand apart in the source; their conditions may differ. Where two headings read alike, the source gives them in different places.

What was measured:
[1] = target: SmBRD3(2) (Schistosoma mansoni, UniProt A0A5K4ESD7); assay: biochemical; assay type: binding; conditions: for N number, binding to SmBRD3(2), Repeat 1 / N number, binding to SmBRD3(2), Repeat 2 / N number, binding to SmBRD3(2), Repeat 3 / N number, binding to SmBRD3(2), Mean: ITC stoichiometry; for N number, binding to SmBRD3(2), Mean: mean of repeats
Chain of SmBRD3(2) (A0A5K4ESD7 entry or part of it): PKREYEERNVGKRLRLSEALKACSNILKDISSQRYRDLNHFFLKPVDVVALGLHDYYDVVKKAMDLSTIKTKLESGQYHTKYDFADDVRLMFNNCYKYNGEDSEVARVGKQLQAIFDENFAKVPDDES

[2] = target: SmBRD3(1,2) (Schistosoma mansoni, UniProt A0A5K4ESD7); assay: biochemical; assay type: binding; conditions: for N number, binding to SmBRD3(1,2): ITC stoichiometry, n=1 ± error of curve fit
Chain of SmBRD3(1,2) (A0A5K4ESD7 entry or part of it): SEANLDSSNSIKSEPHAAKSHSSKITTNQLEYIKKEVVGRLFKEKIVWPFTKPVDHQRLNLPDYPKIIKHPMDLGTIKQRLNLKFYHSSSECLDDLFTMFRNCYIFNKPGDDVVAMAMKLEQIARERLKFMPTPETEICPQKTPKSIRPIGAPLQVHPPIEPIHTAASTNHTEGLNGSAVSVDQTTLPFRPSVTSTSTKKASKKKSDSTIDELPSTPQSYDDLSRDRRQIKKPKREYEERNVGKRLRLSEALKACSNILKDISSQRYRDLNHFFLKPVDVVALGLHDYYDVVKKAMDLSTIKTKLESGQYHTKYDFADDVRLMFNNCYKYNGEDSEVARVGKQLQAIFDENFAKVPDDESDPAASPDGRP

[3] = test system: S. mansoni adult worms; assay: Ex vivo adult worm screening (motility, IVLEs, pairing); parameters: species or system Schistosoma mansoni; conditions: 20 μM in 0.2% DMSO; 72 h
Method: S. mansoni adult worms were recovered by hepatic portal vein perfusion from TO mice (Mus musculus HsdOLa:TO - Tuck Ordinary; Envigo, UK) that were percutaneously infected 7 weeks earlier with 180 cercariae.[65],[71] Following perfusion, schistosomes were washed and processed as previously described.[65],[66] Subsequently, schistosome pairs were seeded into 48 well tissue culture plates (1 worm pair/well, in duplicate) and dosed with the compounds (20 μM in 0.2% DMSO). DMSO (0.2%) and praziquantel (10 μM in 0.1% DMSO) were also included as negative and positive controls, respectively. Parasite motility was assessed by a digital image processing-based system (WormassayGP2),[66] modified after Wormassay.[72]In vitro laid eggs (IVLEs) were enumerated and the presence or absence of paired worms was noted.

[4] = test system: S. mansoni miracidia; assay: Ex vivo miracidia to sporocyst transformation screening; parameters: species or system Schistosoma mansoni; conditions: 0.5-25 μM in 1% DMSO; 48 h; 26 °C
Method: S. mansoni miracidia were obtained by hatching of schistosome eggs as previously described.[73] The resulting miracidial suspension was collected, washed with Chernin’s balanced salt solution (CBSS),[73] and enumerated prior to being used for ex vivo miracidia to sporocyst screens as previously reported.[66],[73] Each compound was tested at 0.5, 2.0, 5.0, 10, and 25 μM final concentrations (in 1% DMSO). Each treatment was set up in duplicate (15–25 miracidia/well). Each titration was performed in three independent experiments (two technical replicates per data point). Parasites cultured in CBSS (containing 1% DMSO) were included as negative controls. After 48 h incubation at 26 °C in the dark, dead, fully transformed and partially transformed miracidia were enumerated as previously described.[74],[75]

[5] = test system: S. mansoni schistosomula; assay: Ex vivo schistosomula screening (Roboworm high content imaging); parameters: species or system Schistosoma mansoni; conditions: 72 h; for EC50: Schistosoma mansoni, ethyl esters (R=Et), 95% CI in brackets
Method: A high-throughput imaging platform that quantifies both phenotype and motility ex vivo, was used to screen compounds against schistosomula; their effects were assessed as previously described.[20] Briefly, the schistosomula stage of S. mansoni was obtained by mechanical transformation of cercariae, dispensed into 384-well tissue culture plates, and dosed with 20 μM (Figure 7) or 10 μM (Figure S48) of each compound. Following 72 h coincubation of the schistosomula and compound, the plate was subjected to high content imaging to quantify the effects of each compound.
S. mansoni schistosomula were obtained by mechanical transformation from cercariae as previously described,[64] distributed in 384-well tissue culture plates (PerkinElmer, catalogue number 6007460) at 120 parasites/well and dosed with the selected compounds as previously reported.[65]−[68] For this study, each compound (as 10 mM DMSO stock solution) was initially tested at two concentration points (20 and 10 μM final concentration, in duplicates) in at least four independent screens (Z′ scores above 0.35).[69] Each screen contained both positive (10 μM auranofin (AUR) in 0.625% DMSO) and negative (0.625% DMSO) controls. […] Following 72 h schistosomula/compound coincubation, the plate was analyzed by the Roboworm platform.[70] EC50 values were calculated from the titrated concentrations by nonlinear regression, after log transformation of concentrations and data normalization using GraphPad Prism 7.02.

[6] = CAD solubility assay; assay type: physicochemical; conditions: phosphate buffered saline, pH 7.4, phosphate buffered saline at pH 7.4; read-out: Aqueous Solubility by CAD
Method: A CAD solubility assay was carried out by Physchem Team, Discovery Analytical, NCE Molecular Discovery at GSK. 5 μL of 10 mM DMSO stock solution was diluted to 100 μL with pH 7.4 phosphate buffered saline, equilibrated for 1 h at room temperature, and filtered through Millipore MultiscreenHTS-PCF filter plates (MSSL BPC). The filtrate was quantified using a suitably calibrated charged aerosol detector.[45]

[7] = chromLogD assay; assay type: physicochemical; conditions: reversed phase HPLC column (Gemini NX C18), pH 7.4
Method: Lipophilicity: a chromLogD assay was carried out by the Physchem Team, Discovery Analytical, NCE Molecular Discovery at GSK. The chromatographic hydrophobicity index (CHI)[46],[47] values were measured using reversed phase HPLC column (50 × 2 mm […] Gemini NX C18, Phenomenex, UK) with fast acetonitrile gradient at starting mobile phase of pHs 2, 7.4, or 10.5. CHI values were derived directly from the gradient retention times using calibration parameters for standard compounds. The CHI value approximates to the volume % organic concentration when the compound elutes. CHI was linearly transformed into a chromLogD[48] value by least-squares fitting of experimental CHI values to calculated cLogP values for over 20000 research compounds.

[8] = ITC, read-out: SmBRD3(2) pKd (converted)
[9] = ITC, single run ± error of curve fit, Repeat 2, read-out: SmBRD3(2) Kd, Repeat 2
[10] = ITC, single run ± error of curve fit, Repeat 3, read-out: SmBRD3(2) Kd, Repeat 3
[11] = read-out: SmBRD3(2) Kd, Repeat 1
[12] = ITC, single run ± error of curve fit, Repeat 1
[13] = ITC, single value ± error of the curve fit or mean of 2-3 repeats ± s.e.m.
[14] = SmBRD3(1,2) Kd, ITC, n = 1 ± error of the curve fit
[15] = read-out: Schistosomla Movement EC50
[16] = read-out: Schistosomla Phenotype EC50
[17] = 20 μM (Figure 7) or 10 μM (Figure S48)

SMILES	N number, binding to SmBRD3(2), Repeat 1 ([1]; Repeat 1)	N number, binding to SmBRD3(2), Repeat 2 ([1]; Repeat 2)	N number, binding to SmBRD3(2), Mean [1]	Kd [1, 8]	Kd [1, 9]	Kd ([1]; read-out: SmBRD3(2) Kd)	SmBRD3(2) Kd [1]	SmBRD3(2) Kd, Repeat 1 [1]	Effect on adult worm movement [3]	also measured
CC(=O)N1c2ccc(-c3ccc(C(=O)O)cc3)cc2[C@H](Nc2ccc3[nH]ccc3c2)C[C@@H]1C [Compound 13, 4-{(2S,4R)-1-Acetyl-4-[(1H-indol-5-yl)amino]-2-methyl-1,2,3,4-tetrahydroquinolin-6-yl}benzoic Acid]	1.52 ± 2.0e-2	1.71 ± 1.8e-2	1.61	631 nM	652 ± 78.5 nM	651 ± 12.7 nM	–	–	–	N number, binding to SmBRD3(2), Repeat 3 ([1]; Repeat 3): 1.60 ± 1.6e-2; Kd [1, 10]: 672 ± 76 nM; Kd [1, 11]: 628 ± 94.9 nM
Cc1noc(C)c1-c1cc(O)cc(C(O)c2ccc(F)cc2)c1 (centres unmarked) [Compound 3, OXFBD02-F, reference compound]	–	–	–	–	–	–	–	–	–	SmBRD3(2) Kd, Repeat 1 [1, 12]: No binding; SmBRD3(2) Kd [1, 13]: No detectable binding; N number, binding to SmBRD3(1,2) [2]: 1.05 ± 3.9e-2; Kd [2, 14]: 1750 ± 301 nM; Kd ([2]; SmBRD3(1,2) pKd, ITC): 1580 nM
CCOC(=O)c1ccc(-c2ccc3c(c2)[C@H](Nc2ccc4ccsc4c2)C[C@H](C)N3C(C)=O)cc1 [Compound 16, Ethyl 4-{(2S,4R)-1-Acetyl-4-[(1-benzothiophen-6-yl)amino]-2-methyl-1,2,3,4-tetrahydroquinolin-6-yl}benzoate]	–	–	–	–	–	–	No binding	No binding	substantial effects	Effect on miracidia to sporocyst transformation [4]: concentration-dependent inhibition
CC(=O)N1c2ccc(-c3ccc(C(=O)O)cc3)cc2[C@H](Nc2ccc3ccoc3c2)C[C@@H]1C [Compound 11, 4-((2S,4R)-1-Acetyl-4-[(1-benzofuran-6-yl)amino]-2-methyl-1,2,3,4-tetrahydroquinolin-6-yl)benzoic Acid]	1.54 ± 2.5e-2	1.49 ± 3.0e-2	1.52	1260 nM	1300 ± 236 nM	1180 ± 120 nM	–	–	–	Kd [1, 11]: 1060 ± 164 nM
CCOC(=O)c1ccc(-c2ccc3c(c2)[C@H](Nc2ccc4[nH]ccc4c2)C[C@H](C)N3C(C)=O)cc1 [Compound 20, Ethyl 4-{(2S,4R)-1-Acetyl-4-[(1H-indol-5-yl)amino]-2-methyl-1,2,3,4-tetrahydroquinolin-6-yl}benzoate]	–	–	–	–	–	–	No binding	No binding	substantial effects	Antischistosomula activity at 10 μM [5]: active; EC50 [5, 15]: 1810 nM; EC50 [5, 16]: 2970 nM
CCOC(=O)c1ccc(-c2ccc3c(c2)[C@H](Nc2ccc4ccoc4c2)C[C@H](C)N3C(C)=O)cc1 [Compound 18, Ethyl 4-{(2S,4R)-1-Acetyl-4-[(1-benzofuran-6-yl)amino]-2-methyl-1,2,3,4-tetrahydroquinolin-6-yl}benzoate]	–	–	–	–	–	–	No binding	No binding	substantial effects	Antischistosomula activity at 10 μM [5]: active; Effect on schistosomula motility [5, 17]: substantial effects; EC50 [5, 15]: 3920 nM; EC50 [5, 16]: 2430 nM
CCOC(=O)c1ccc(-c2ccc3c(c2)[C@H](Nc2ccc4ncsc4c2)C[C@H](C)N3C(C)=O)cc1 [Compound 21, Ethyl 4-{(2S,4R)1-Acetyl-4-[(1,3-benzothiazol-6-yl)amino]-2-methyl-1,2,3,4-tetrahydroquinolin-6-yl}benzoate]	–	–	–	–	–	–	No binding	No binding	substantial effects	Antischistosomula activity at 10 μM [5]: active; Effect on schistosomula motility [5, 17]: greatest effects; Effect on schistosomula phenotype [5, 17]: greatest effects; EC50 [5, 15]: 2850 nM; EC50 [5, 16]: 2140 nM
CC(=O)N1c2ccc(-c3ccc(C(=O)O)cc3)cc2[C@H](Nc2ccc3sccc3c2)C[C@@H]1C [Compound 12, 4-((2S,4R)-1-Acetyl-4-[(1-benzothiophen-5-yl)amino]-2-methyl-1,2,3,4-tetrahydroquinolin-6-yl)benzoic Acid]	1.51 ± 1.8e-2	1.55 ± 1.4e-2	1.53	501 nM	543 ± 60.3 nM	553 ± 9.5 nM	–	–	–	Kd [1, 11]: 562 ± 79.1 nM
CC(=O)N1c2ccc(-c3ccc(C(=O)O)cc3)cc2[C@@H](Nc2ccc3ccsc3c2)C[C@H]1C [Compound 10, 4-{(2R,4S)-1-Acetyl-4-[(1-benzothiophen-6-yl)amino]-2-methyl-1,2,3,4-tetrahydroquinolin-6-yl}benzoic Acid]	–	–	–	–	–	–	No detectable binding; also recorded: does not bind	No binding	–	SmBRD3(1,2) Kd ([2]; ITC, n = 1 ± error of the curve fit): No detectable binding; solubility at 1 h [6]: > 259 µM; chromatographic logD [7]: 2.83
CC(=O)N1c2ccc(-c3ccc(C(=O)O)cc3)cc2[C@H](Nc2ccc3ncsc3c2)C[C@@H]1C [Compound 14, 4-{(2S,4R)-1-Acetyl-4-[(1,3-benzothiazol-6-yl)amino]-2-methyl-1,2,3,4-tetrahydroquinolin-6-yl}benzoic acid]	1.42 ± 2.4e-2	1.54 ± 0.101	1.48	1260 nM	1270 ± 779 nM	1180 ± 86.7 nM	–	–	–	N number, binding to SmBRD3(2), Repeat 3 ([1]; Repeat 3): 1.49 ± 5.4e-2; Kd ([1]; ITC, single run ± error of curve fit, Repeat 1, read-out: SmBRD3(2) Kd, Repeat 1): 1010 ± 160 nM; Kd [1, 10]: 1270 ± 349 nM; solubility at 1 h [6]: ≥ 260 µM; chromatographic logD [7]: 1.78
Cc1noc(C)c1-c1cc(O)cc(C(O)c2cccnc2)c1 (centres unmarked) [OXFBD04 (4), OXFBD04, reference compound]	–	–	–	–	–	–	–	–	–	SmBRD3(2) Kd, Repeat 1 [1, 12]: No binding; SmBRD3(2) Kd [1, 13]: No detectable binding; N number, binding to SmBRD3(1,2) [2]: 1.39 ± 2.0e-2; Kd [2, 14]: 2950 ± 261 nM; Kd ([2]; SmBRD3(1,2) pKd, ITC): 3160 nM; Effect on miracidia to sporocyst transformation [4]: modest effects
CCOC(=O)c1ccc(-c2ccc3c(c2)[C@H](Nc2ccc4sccc4c2)C[C@H](C)N3C(C)=O)cc1 [Compound 19]	–	–	–	–	–	–	No binding	No binding	–	–
